Assay results published in patent publication US10433553B2, “Salts of N-(1,3,4-oxadiazol-2-yl) aryl carboxylic acid amides and the use of same as herbicides” (BAYER CROPSCIENCE AKTIENGESELLSCHAFT, priority 2015, dated 2019).
Where two headings read alike, the source gives them in different places.

Legend:
AMARE = assay: Post-emergence herbicidal action against harmful plants; format: in vivo, Amaranthus retroflexus; conditions: dosage 5 g/ha, assessed visually after about 3 weeks
Description: (§1) 2. Post-Emergence Herbicidal Action Against Harmful Plants
(§2) Seeds of monocotyledonous and dicotyledonous weed and crop plants are laid out in sandy loam in wood-fiber pots, covered with soil and cultivated in a greenhouse under good growth conditions. 2 to 3 weeks after sowing, the test plants are treated at the one-leaf stage.

ABUTH = assay: Pre-emergence herbicidal action against harmful plants; format: in vivo, Abutilon theophrasti; conditions: scored visually after 3 weeks
Description: (§3) 1. Pre-Emergence Herbicidal Action Against Harmful Plants
(§4) Seeds of monocotyledonous and dicotyledonous weed plants and crop plants are laid out in wood-fiber pots in sandy loam and covered with soil. […] The comparative tests were conducted by way of example on some weed plants and crop plants.

TRZAS [1] = assay: Post-emergence damage to crop plants; format: in vivo; conditions: dosage 5 g/ha, assessed visually after about 3 weeks
Description: as §1, §2

VERPE = assay: Post-emergence herbicidal action against harmful plants; format: in vivo; conditions: dosage 5 g/ha, assessed visually after about 3 weeks
Description: as §1, §2

ALOMY [2] = assay: Pre-emergence herbicidal action against harmful plants; format: in vivo; conditions: scored visually after 3 weeks
Description: as §3, §4

CYPES = assay: as above; format: in vivo; conditions: scored visually after 3 weeks
Description: as §3, §4

ZEAMX [3] = conditions: pre-emergence, scored visually after 3 weeks
Description: as §3, §4

ALOMY [4] = assay: Post-emergence herbicidal action against harmful plants; format: in vivo; conditions: dosage 5 g/ha, assessed visually after about 3 weeks
Description: as §1, §2

STEME = assay: Pre-emergence herbicidal action against harmful plants; format: in vivo, Stellaria media; conditions: dosage 20 g/ha, scored visually after 3 weeks
Description: as §3

ZEAMX [5] = assay: Post-emergence damage to crop plants; format: in vivo; conditions: dosage 5 g/ha, assessed visually after about 3 weeks
Description: as §1, §2

TRZAS [6] = assay: Pre-emergence damage to crop plants; format: in vivo; conditions: dosage 20 g/ha, scored visually after 3 weeks
Description: as §3

[7] = dosage 20 g/ha, 100% = plants have died, 0% = like control plants

## Cc1nnc(NC(=O)c2ccc(C(F)(F)F)c(S(C)(=O)=O)c2C)o1 [drawing 41]
AMARE
  Activity against AMARE: 100%

## Cc1nnc(NC(=O)c2ccc(C(F)(F)F)c(S(C)(=O)=O)c2C)o1 [drawing 13]
ABUTH; [7]
  Activity against ABUTH: 100%

## Cc1nnc([N-]C(=O)c2ccc(C(F)(F)F)c([S+](C)[O-])c2Cl)o1.[Na+] (stereo not drawn)
TRZAS [1]
  Damage to TRZAS: 0%
VERPE
  Activity against VERPE: 70%

## Cc1nnc([N-]C(=O)c2ccc(C(F)(F)F)c(S(C)(=O)=O)c2C)o1.[Na+] [drawing 25]
ALOMY [2]; dosage 20 g/ha
  Activity against ALOMY: 60%
CYPES; dosage 20 g/ha
  Activity against CYPES: 40%
ZEAMX [3]; dosage 20 g/ha
  Damage to ZEAMX: 0%

## Cc1nnc(NC(=O)c2ccc(C(F)(F)F)c([S+](C)[O-])c2C)o1 (stereo not drawn) [drawing 58, reference compound]
ALOMY [4]
  Activity against ALOMY: 60%
VERPE
  Activity against VERPE: 50%

## Cc1nnc(NC(=O)c2ccc(C(F)(F)F)c(S(C)(=O)=O)c2C)o1 [drawing 30]
ABUTH; [7]
  Activity against ABUTH: 70%
ALOMY [2]; dosage 20 g/ha
  Activity against ALOMY: 20%
CYPES; dosage 20 g/ha
  Activity against CYPES: 40%

## Cc1nnc(NC(=O)c2ccc(C(F)(F)F)c(S(C)(=O)=O)c2C)o1 [drawing 29]
ABUTH; [7]
  Activity against ABUTH: 100%
ALOMY [2]; dosage 20 g/ha
  Activity against ALOMY: 10%
CYPES; dosage 20 g/ha
  Activity against CYPES: 70%

## Cc1nnc(NC(=O)c2ccc(C(F)(F)F)c(S(C)(=O)=O)c2C)o1 [drawing 12, reference compound]
STEME
  Activity against STEME: 70%

## Cc1nnc([N-]C(=O)c2ccc(C(F)(F)F)c(S(C)(=O)=O)c2C)o1.[Na+] [drawing 51]
TRZAS [1]
  Damage to TRZAS: 0%
ALOMY [4]
  Activity against ALOMY: 80%
VERPE
  Activity against VERPE: 100%

## CCc1nnc(NC(=O)c2ccc(S(=O)(=O)CC)c(C3=NOC(COC)C3)c2Cl)o1 (stereo not drawn) [drawing 38]
ABUTH; dosage 320 g/ha
  Activity against ABUTH: 10%
ALOMY [2]; dosage 320 g/ha
  Activity against ALOMY: 10%
CYPES; dosage 320 g/ha
  Activity against CYPES: 80%

## Cc1nnc([N-]C(=O)c2ccc(C(F)(F)F)c(S(C)(=O)=O)c2C)o1.[K+] [drawing 47]
AMARE
  Activity against AMARE: 60%
ZEAMX [5]
  Damage to ZEAMX: 0%

## CCc1nnc(NC(=O)c2ccc(S(=O)(=O)CC)c(C3=NOC(COC)C3)c2Cl)o1 (stereo not drawn) [drawing 37]
ABUTH; dosage 320 g/ha
  Activity against ABUTH: 80%
ALOMY [2]; dosage 320 g/ha
  Activity against ALOMY: 20%
CYPES; dosage 320 g/ha
  Activity against CYPES: 100%
ZEAMX [3]; dosage 320 g/ha
  Damage to ZEAMX: 10%

## Cc1nnc(NC(=O)c2ccc(C(F)(F)F)c(S(C)(=O)=O)c2C)o1 [drawing 17]
ABUTH; [7]
  Activity against ABUTH: 100%

## Cc1nnc(NC(=O)c2ccc(C(F)(F)F)c(S(C)(=O)=O)c2C)o1 [drawing 23]
ABUTH; [7]
  Activity against ABUTH: 100%
ALOMY [2]; dosage 20 g/ha
  Activity against ALOMY: 70%
CYPES; dosage 20 g/ha
  Activity against CYPES: 70%

## Cc1nnc(NC(=O)c2ccc(C(F)(F)F)c(S(C)(=O)=O)c2C)o1 [drawing 43]
AMARE
  Activity against AMARE: 100%

## CCc1nnc(NC(=O)c2ccc(S(=O)(=O)CC)c(C3=NOC(COC)C3)c2Cl)o1 (stereo not drawn) [drawing 36]
ABUTH; dosage 320 g/ha
  Activity against ABUTH: 90%
ALOMY [2]; dosage 320 g/ha
  Activity against ALOMY: 10%
CYPES; dosage 320 g/ha
  Activity against CYPES: 80%

## Cc1nnc(NC(=O)c2ccc(C(F)(F)F)c(S(C)(=O)=O)c2C)o1 [drawing 49]
AMARE
  Activity against AMARE: 60%

## Cc1nnc(NC(=O)c2ccc(C(F)(F)F)c(S(C)(=O)=O)c2C)o1 [drawing 28]
ABUTH; [7]
  Activity against ABUTH: 70%
ALOMY [2]; dosage 20 g/ha
  Activity against ALOMY: 20%
CYPES; dosage 20 g/ha
  Activity against CYPES: 40%

## Cc1nnc(NC(=O)c2ccc(C(F)(F)F)c(S(C)(=O)=O)c2C)o1 [drawing 53]
ALOMY [4]
  Activity against ALOMY: 80%
VERPE
  Activity against VERPE: 90%

## CCc1nnc([N-]C(=O)c2ccc(S(=O)(=O)CC)c(C3=NOC(COC)C3)c2Cl)o1.[Na+] (stereo not drawn)
ABUTH; dosage 320 g/ha
  Activity against ABUTH: 90%
ALOMY [2]; dosage 320 g/ha
  Activity against ALOMY: 30%
CYPES; dosage 320 g/ha
  Activity against CYPES: 80%
ZEAMX [3]; dosage 320 g/ha
  Damage to ZEAMX: 0%

## Cc1nnc(NC(=O)c2ccc(C(F)(F)F)c(S(C)(=O)=O)c2C)o1 [drawing 46, reference compound]
AMARE
  Activity against AMARE: 80%

## Cc1nnc(NC(=O)c2ccc(C(F)(F)F)c(S(C)(=O)=O)c2C)o1 [drawing 48, reference compound]
AMARE
  Activity against AMARE: 40%

## Cc1nnc([N-]C(=O)c2ccc(C(F)(F)F)c(S(C)(=O)=O)c2C)o1.[Na+] [drawing 39]
AMARE
  Activity against AMARE: 100%
ZEAMX [5]
  Damage to ZEAMX: 0%

## Cc1nnc(NC(=O)c2ccc(C(F)(F)F)c([S+](C)[O-])c2Cl)o1 (stereo not drawn) [drawing 33]
ALOMY [2]; dosage 20 g/ha
  Activity against ALOMY: 60%

## Cc1nnc(NC(=O)c2ccc(C(F)(F)F)c(S(C)(=O)=O)c2C)o1 [drawing 18]
ABUTH; [7]
  Activity against ABUTH: 70%

## Cc1nnc(NC(=O)c2ccc(C(F)(F)F)c(S(C)(=O)=O)c2C)o1 [drawing 11]
STEME
  Activity against STEME: 90%

## Cc1nnc(NC(=O)c2ccc(C(F)(F)F)c(S(C)(=O)=O)c2C)o1 [drawing 10, reference compound]
STEME
  Activity against STEME: 70%

## Cc1nnc(NC(=O)c2ccc(C(F)(F)F)c(S(C)(=O)=O)c2C)o1 [drawing 50, reference compound]
AMARE
  Activity against AMARE: 40%

## Cc1nnc(NC(=O)c2ccc(C(F)(F)F)c(S(C)(=O)=O)c2C)o1 [drawing 44, reference compound]
AMARE
  Activity against AMARE: 80%

## Cc1nnc(NC(=O)c2ccc(C(F)(F)F)c(S(C)(=O)=O)c2C)o1 [drawing 52, reference compound]
ALOMY [4]
  Activity against ALOMY: 60%
VERPE
  Activity against VERPE: 60%

## Cc1nnc(NC(=O)c2ccc(C(F)(F)F)c(S(C)(=O)=O)c2C)o1 [drawing 26]
ABUTH; [7]
  Activity against ABUTH: 70%
ALOMY [2]; dosage 20 g/ha
  Activity against ALOMY: 20%
CYPES; dosage 20 g/ha
  Activity against CYPES: 40%

## Cc1nnc(NC(=O)c2ccc(C(F)(F)F)c(S(C)(=O)=O)c2C)o1 [drawing 15]
ABUTH; [7]
  Activity against ABUTH: 100%

## Cc1nnc(NC(=O)c2ccc(C(F)(F)F)c(S(C)(=O)=O)c2C)o1 [drawing 14]
ABUTH; [7]
  Activity against ABUTH: 70%

## Cc1nnc(NC(=O)c2ccc(C(F)(F)F)c(S(C)(=O)=O)c2C)o1 [drawing 21]
ABUTH; [7]
  Activity against ABUTH: 100%

## Cc1nnc(NC(=O)c2ccc(C(F)(F)F)c(S(C)(=O)=O)c2C)o1 [drawing 40, reference compound]
AMARE
  Activity against AMARE: 80%

## Cc1nnc(NC(=O)c2ccc(C(F)(F)F)c(S(C)(=O)=O)c2C)o1 [drawing 45]
AMARE
  Activity against AMARE: 100%

## Cc1nnc(NC(=O)c2ccc(C(F)(F)F)c(S(C)(=O)=O)c2C)o1 [drawing 20]
ABUTH; [7]
  Activity against ABUTH: 70%

## Cc1nnc(NC(=O)c2ccc(C(F)(F)F)c(S(C)(=O)=O)c2C)o1 [drawing 16]
ABUTH; [7]
  Activity against ABUTH: 70%

## Cc1nnc(NC(=O)c2ccc(C(F)(F)F)c([S+](C)[O-])c2Cl)o1 (stereo not drawn) [drawing 32]
ABUTH; [7]
  Activity against ABUTH: 60%
ALOMY [2]; dosage 20 g/ha
  Activity against ALOMY: 20%
CYPES; dosage 20 g/ha
  Activity against CYPES: 60%

## Cc1nnc(NC(=O)c2ccc(C(F)(F)F)c(S(C)(=O)=O)c2C)o1 [drawing 54, reference compound]
ALOMY [4]
  Activity against ALOMY: 60%
VERPE
  Activity against VERPE: 60%

## Cc1nnc(NC(=O)c2ccc(C(F)(F)F)c([S+](C)[O-])c2Cl)o1 (stereo not drawn) [drawing 57]
VERPE
  Activity against VERPE: 80%

## Cc1nnc(NC(=O)c2ccc(C(F)(F)F)c([S+](C)[O-])c2C)o1 (stereo not drawn) [drawing 56, reference compound]
ALOMY [4]
  Activity against ALOMY: 60%
VERPE
  Activity against VERPE: 50%

## Cc1nnc(NC(=O)c2ccc(C(F)(F)F)c([S+](C)[O-])c2Cl)o1 (stereo not drawn) [drawing 34]
ABUTH; [7]
  Activity against ABUTH: 60%
ALOMY [2]; dosage 20 g/ha
  Activity against ALOMY: 20%
CYPES; dosage 20 g/ha
  Activity against CYPES: 60%

## Cc1nnc([N-]C(=O)c2ccc(C(F)(F)F)c(S(C)(=O)=O)c2C)o1.[Na+] [drawing 7]
ABUTH; [7]
  Activity against ABUTH: 100%
TRZAS [6]
  Damage to TRZAS: 0%

## Cc1nnc(NC(=O)c2ccc(C(F)(F)F)c(S(C)(=O)=O)c2C)o1 [drawing 24]
ABUTH; [7]
  Activity against ABUTH: 70%
ALOMY [2]; dosage 20 g/ha
  Activity against ALOMY: 20%
CYPES; dosage 20 g/ha
  Activity against CYPES: 40%

## Cc1nnc([N-]C(=O)c2ccc(C(F)(F)F)c(S(C)(=O)=O)c2C)o1.[K+] [drawing 9]
TRZAS [6]
  Damage to TRZAS: 0%
STEME
  Activity against STEME: 90%

## Cc1nnc(NC(=O)c2ccc(C(F)(F)F)c(S(C)(=O)=O)c2C)o1 [drawing 22]
ABUTH; [7]
  Activity against ABUTH: 70%

## Cc1nnc(NC(=O)c2ccc(C(F)(F)F)c(S(C)(=O)=O)c2C)o1 [drawing 19]
ABUTH; [7]
  Activity against ABUTH: 100%

## Cc1nnc(NC(=O)c2ccc(C(F)(F)F)c(S(C)(=O)=O)c2C)o1 [drawing 8]
ABUTH; [7]
  Activity against ABUTH: 70%

## Cc1nnc(NC(=O)c2ccc(C(F)(F)F)c(S(C)(=O)=O)c2C)o1 [drawing 42, reference compound]
AMARE
  Activity against AMARE: 80%

## Cc1nnc(NC(=O)c2ccc(C(F)(F)F)c(S(C)(=O)=O)c2C)o1 [drawing 27]
ABUTH; [7]
  Activity against ABUTH: 100%
ALOMY [2]; dosage 20 g/ha
  Activity against ALOMY: 60%
CYPES; dosage 20 g/ha
  Activity against CYPES: 60%
